PubChem BioAssay AID588663 (The Scripps Research Institute Molecular Screening Center, 2011)
Calls of active or inactive are those of the source.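 Rule for the calls: active = phosphorylated p38 level shifted at least 30% either way versus solvent-only control; inactive = shift under 30% either way.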

Tested on: SW620 cells, phospho-p38 western blot, 24 h
Assay: altered phosphorylated p38 MAPK amounts – SW620 cells, chemiluminescent western blot, powder samples, counter-screen for KLF5 inhibitor project, late-stage follow-up (AID 588663)
Settings: at 10 µM; hits give high values

| SMILES | inhibition |
| --- | --- |
| CN(C(=O)CNC(=O)/C=C/c1cccc(Cl)c1)C1CCS(=O)(=O)CC1 | 6.58% (inactive) |
| CN(C(=O)COC(=O)/C=C/c1cccc([N+](=O)[O-])c1)C1CCS(=O)(=O)C1 (stereo not drawn) | 9.32% (inactive) |
| CN(C(=O)CNC(=O)/C=C/c1cccc(Cl)c1)C1CCS(=O)(=O)C1 (stereo not drawn) | 15.9% (inactive) |
